The target of one data set is GSK-3β (Homo sapiens, UniProt P49841). The data set can be described thus: GSK-3 kinase assay (C1), GSK-3β. Format: biochemical. Conditions: 1 μM ATP; for IC50: read-out: C1 Score β. The method, boiled down: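 Radiometric SPA at room temperature in 25 mM Tris pH 7.4 with 10 mM MgCl2, 1 mM DTT, 5.7 ng/μl GSK-3β or 0.25 ng/μl GSK-3α, 5 μM biotinylated CREB peptide and 1 μM ATP plus ^33P-ATP. Stopped after 1 h; IC50 from dose-response versus no-compound control, reported as pIC50 score bands.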
Chain of GSK-3β (P49841 whole entry, species assumed): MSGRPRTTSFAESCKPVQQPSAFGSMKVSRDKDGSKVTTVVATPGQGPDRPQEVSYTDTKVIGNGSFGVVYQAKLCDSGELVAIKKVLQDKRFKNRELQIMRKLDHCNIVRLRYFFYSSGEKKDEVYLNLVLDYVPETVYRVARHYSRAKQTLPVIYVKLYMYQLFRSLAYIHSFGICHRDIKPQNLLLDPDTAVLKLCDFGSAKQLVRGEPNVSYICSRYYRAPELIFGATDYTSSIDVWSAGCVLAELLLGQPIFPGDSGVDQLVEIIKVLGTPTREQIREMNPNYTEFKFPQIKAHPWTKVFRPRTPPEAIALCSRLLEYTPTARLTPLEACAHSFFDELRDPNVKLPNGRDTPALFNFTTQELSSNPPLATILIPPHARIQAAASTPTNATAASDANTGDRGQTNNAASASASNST

The target in the next data set is cSRC (h) (Homo sapiens, UniProt P12931). The data set can be described thus: Kinase profiling C3.9 cSRC human. The class given is biochemical. Conditions: test concentration of 10^−6 M. As to the method:
The in vitro inhibition of a panel of kinases was assessed using either the glass-fiber filter technology as described by Davies, S. P. et al., Biochem J. (2000), 351; p. 95-105. In the glass-fiber filter technology the activity of the kinase of interest is measured using an appropriate substrate that is incubated with the aforementioned kinase protein in the presence of (^33P) radiolabeled ATP. (^33P) Phosporylation of the substrate is subsequently measured as radioactivity bound on a glassfiber-filter.
All kinases are pre-diluted to a 10× working concentration prior to addition into the assay. The composition of the dilution buffer for each kinase is detailed below.
All substrates are dissolved and diluted to working stocks in de-ionised water, apart from histone H1 that is stored in 10× working stock in 20 mM MOPS pH 7.4.
In a final reaction volume of 25 μl, cSRC (h) (5-10 mU) is incubated with 8 mM MOPS pH 7.0, 0.2 mM EDTA, 250 μM KVEKIGEGTYGVVYK (Cdc2 peptide), 10 mM MgAcetate and [γ-^33P-ATP] (specific activity approx. 500 cpm/pmol, concentration as required). The reaction is initiated by the addition of the MgATP mix. After incubation for 40 minutes at room temperature, the reaction is stopped by the addition of 5 μl of a 3% phosphoric acid solution.
10 μl of the reaction is then spotted onto a P30 filtermat and washed three times for 5 minutes in 75 mM phosphoric acid and once in methanol prior to drying and scintillation counting.

Data on 21 molecules can be found in patent publication US8778919B2, “Cyclic anilino—pyridinotriazines” (Janssen Pharmaceutica NV, priority 2005, dated 2014).

Broadly, the melting point is the temperature of the solid-liquid transition.

Some results are limits rather than exact numbers.

Chain of cSRC (h) (P12931 whole entry): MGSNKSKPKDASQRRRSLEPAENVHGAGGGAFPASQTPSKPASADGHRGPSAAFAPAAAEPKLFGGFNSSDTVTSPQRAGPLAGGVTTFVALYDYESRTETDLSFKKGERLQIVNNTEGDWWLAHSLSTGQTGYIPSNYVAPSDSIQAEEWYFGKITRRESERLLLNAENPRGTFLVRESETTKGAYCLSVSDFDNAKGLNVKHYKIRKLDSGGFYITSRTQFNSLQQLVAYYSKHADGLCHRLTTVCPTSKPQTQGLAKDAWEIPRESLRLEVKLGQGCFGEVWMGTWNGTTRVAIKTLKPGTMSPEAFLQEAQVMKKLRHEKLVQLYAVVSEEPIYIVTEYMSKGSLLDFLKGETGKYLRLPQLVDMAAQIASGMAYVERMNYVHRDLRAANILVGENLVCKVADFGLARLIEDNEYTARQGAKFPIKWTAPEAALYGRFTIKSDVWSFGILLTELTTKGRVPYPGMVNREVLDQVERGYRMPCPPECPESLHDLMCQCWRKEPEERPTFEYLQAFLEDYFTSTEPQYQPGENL

For the molecule `CN1CCN(CCN2CCC(=O)NCCCc3cc(ccn3)-c3ncnc(n3)Nc3cccc(c3)C2)CC1` [Compound 11], at GSK-3β, the IC50 is 100 to 1000 nM. Also, the C3.9 score at cSRC (h) is recorded as 1 (Score 1 = 10-30% inhibition).
On to `CN1CC(=O)NCCCc2cc(ccn2)-c2ncnc(n2)Nc2cccc(c2)C1` [Compound 8], for which the “C1 Score β” value on GSK-3β is reported as 4 (Score 4=pIC50 value>8).
As for `CN1CC(=O)NC/C(Cl)=C/c2cc(ccn2)-c2ncnc(n2)Nc2cccc(c2)C1` [Compound 2], at GSK-3β, the IC50 is under 10 nM. Further, the C3.9 score on cSRC (h) was 4 (Score 4 = >80% inhibition).
Turning to `CN1CC(=O)NCCCc2cc(ccn2)-c2ncnc(n2)Nc2cccc(c2)C1` [Compound 10], the IC50 on GSK-3β is under 10 nM. In addition, at cSRC (h), the C3.9 score was 2 (Score 2 = 30-60% inhibition).
`CCN1CCCc2cc(ccn2)-c2ncnc(n2)Nc2cccc(c2)CCNC(=O)C1` [Compound 30]: the IC50 at GSK-3β is under 10 nM.
The same measure, in the same setting: the figure for `CCN1CC(=O)NCCCc2cc(ccn2)-c2ncnc(n2)Nc2cc(Cl)cc(c2)C1` [Compound 34] is under 10 nM.
On to `O=C1NCCCc2cc(ccn2)-c2ncnc(n2)Nc2cccc(c2)CN2CCCC1C2` (centres unmarked) [Compound 15], for which the IC50 on GSK-3β was 10 to 100 nM. Also, the C3.9 score on cSRC (h) is recorded as 1 (Score 1 = 10-30% inhibition).
Consider `CN1CCCC(=O)NCCCc2cc(ccn2)-c2ncnc(n2)Nc2cccc(c2)C1` [Compound 13], for which the IC50 on GSK-3β is 10 to 100 nM. In addition, the C3.9 score on cSRC (h) is reported as 2 (Score 2 = 30-60% inhibition).
Taken in the same sequence, the figures for `O=C1CCN2CCN(CC2)Cc2cccc(c2)Nc2ncnc(n2)-c2ccnc(c2)CCCN1` [Compound 35] were 10 to 100 nM and 2 (Score 2 = 30-60% inhibition).
For `CN1CCCc2cc(ccn2)-c2ncnc(n2)Nc2cccc(c2)CNC(=O)C1` [Compound 7], the melting point lay in the range of 201.9 to 203.3 °C. For the same molecule, at GSK-3β, the IC50 is under 10 nM. Besides, the C3.9 score at cSRC (h) was 2 (Score 2 = 30-60% inhibition).
`O=C1NCCCc2cc(ccn2)-c2ncnc(n2)Nc2cccc(c2)CN2CCCC12` (centres unmarked) [Compound 12]: at GSK-3β, the IC50 was in the range of 100 to 1000 nM. In addition, at cSRC (h), the C3.9 score is 2 (Score 2 = 30-60% inhibition).
For `O=C1NCCCc2cc(ccn2)-c2ncnc(n2)Nc2cccc(c2)CN2C[C@H](O)C[C@@H]12` [Compound 14] the same measures were 10 to 100 nM and 2 (Score 2 = 30-60% inhibition).
Regarding `CN1CCC(=O)NCCCc2cc(ccn2)-c2ncnc(n2)Nc2cccc(c2)C1` [Compound 3], at GSK-3β, the IC50 fell in the range of 10 to 100 nM. The C3.9 score on cSRC (h) is 2 (Score 2 = 30-60% inhibition).
As to `O=C1NCCCc2cc(ccc2F)-c2ncnc(n2)Nc2cc(Cl)cc(c2)CN[C@H]1CO` [Compound 71], on cSRC (h), the C3.9 score is reported as 4 (Score 4 = >80% inhibition).
As to `O=C1CN2CCN(CC2)Cc2cccc(c2)Nc2ncnc(n2)-c2ccnc(c2)CCCN1` [Compound 36], on GSK-3β, the IC50 was under 10 nM. For the same molecule, at cSRC (h), the C3.9 score is given as 1 (Score 1 = 10-30% inhibition).
`CN1CC(=O)NCC#Cc2cc(ccn2)-c2ncnc(n2)Nc2cccc(c2)C1` [Compound 1] came in with a melting point of 267.5 to 269.3 °C. Besides, the IC50 at GSK-3β is under 10 nM. The C3.9 score on cSRC (h) is recorded as 3 (Score 3 = 60-80% inhibition).
As to `CN1CC(=O)NCCCc2cc(ccn2)-c2ncnc(n2)Nc2cc(Cl)cc(c2)C1` [Compound 33], the IC50 at GSK-3β was under 10 nM.
On the same count and under the same terms, under `O=C1CN2CCN(CC2)Cc2cc(Cl)cc(c2)Nc2ncnc(n2)-c2ccnc(c2)CCCN1` [Compound 41] stands under 10 nM.
With `O=C1NCCCc2cncc(c2)-c2ncnc(n2)Nc2cccc(c2)CN[C@H]1CO` [Compound 81], the C3.9 score at cSRC (h) was 1 (Score 1 = 10-30% inhibition).
With `CCN1CC(=O)NCCCc2cccc(c2)-c2ncnc(n2)Nc2cccc(c2)C1` [Compound 54], the C3.9 score on cSRC (h) is recorded as 1 (Score 1 = 10-30% inhibition).
As for `O=C1CN2CCN(CC2)Cc2cccc(c2)Nc2ncnc(n2)-c2ccnc(c2)CCCN1` [Compound 9], the “C1 Score β” value at GSK-3β is 4 (Score 4=pIC50 value>8).
